In PubChem BioAssay AID2060487 (Molecular Pharmacology Branch, DTP, NCI, 2025):
pIC50: −log10 of the molar value.

System: 997537-175-T-J1-PDC complex spheroid viability
Experiment: Anticancer human tumor 997537-175-T-J1-PDC patient-derived colon adenocarcinoma cell line growth inhibition [GQUAD]
Details: for pIC50: curve of first compound; for viability, T/C: stronger effect = lower value; active = viability on the fitted dose curve at most 10% of control; inactive = the rest
Procedure, shortened: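 Viability of tumor cells grown as complex spheroids with endothelial and stromal cells, exposed to drug combinations. Top concentration at or near clinical Cmax (else 10 microM), diluted in half-log increments.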

[1] = second compound 0.0316 µM, first compound 0.0316 µM
[2] = second compound 0.0316 µM, first compound 0.1 µM
[3] = second compound 0.0316 µM, first compound 0.316 µM
[4] = second compound 0.0316 µM, first compound 1 µM
[5] = second compound 0.0316 µM, first compound 3.16 µM
[6] = second compound 0.0316 µM, first compound 10 µM
[7] = second compound 0.1 µM, first compound 0.0316 µM
[8] = second compound 0.1 µM, first compound 0.1 µM
[9] = second compound 0.1 µM, first compound 0.316 µM
[10] = second compound 0.1 µM, first compound 1 µM
[11] = second compound 0.1 µM, first compound 3.16 µM
[12] = second compound 0.1 µM, first compound 10 µM
[13] = second compound 0.316 µM, first compound 0.0316 µM
[14] = second compound 0.316 µM, first compound 0.1 µM
[15] = second compound 0.316 µM, first compound 0.316 µM
[16] = second compound 0.316 µM, first compound 1 µM
[17] = second compound 0.316 µM, first compound 3.16 µM
[18] = second compound 0.316 µM, first compound 10 µM
[19] = second compound 1 µM, first compound 0.0316 µM
[20] = second compound 1 µM, first compound 0.1 µM
[21] = second compound 1 µM, first compound 0.316 µM
[22] = second compound 1 µM, first compound 1 µM
[23] = second compound 1 µM, first compound 3.16 µM
[24] = second compound 1 µM, first compound 10 µM
[25] = second compound 3.16 µM, first compound 0.0316 µM
[26] = second compound 3.16 µM, first compound 0.1 µM
[27] = second compound 3.16 µM, first compound 0.316 µM
[28] = second compound 3.16 µM, first compound 1 µM
[29] = second compound 3.16 µM, first compound 3.16 µM
[30] = second compound 3.16 µM, first compound 10 µM
[31] = second compound 10 µM, first compound 0.0316 µM
[32] = second compound 10 µM, first compound 0.1 µM
[33] = second compound 10 µM, first compound 0.316 µM
[34] = second compound 10 µM, first compound 1 µM
[35] = second compound 10 µM, first compound 3.16 µM
[36] = second compound 10 µM, first compound 10 µM
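Also: spheroids exposed to the agents for 7 days.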
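For viability, T/C in this document: 100% = DMSO vehicle control viability.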

C=CC(=O)N1CCN(c2nc(=O)n(-c3c(C)ccnc3C(C)C)c3nc(-c4c(O)cccc4F)c(F)cc23)C(C)C1 (stereo unspecified) + Cc1[nH]c2ccc(F)cc2c1-c1nc2c3cccnc3c3ncccc3c2[nH]1
inactive: viability, T/C [1] 102% | viability, T/C [2] 89.9% | viability, T/C [3] 86.2% | viability, T/C [4] 92.5% | viability, T/C [5] 91.7% | viability, T/C [6] 97.5% | viability, T/C [7] 91.1% | viability, T/C [8] 71.1% | viability, T/C [9] 87.9% | viability, T/C [10] 75.4% | viability, T/C [11] 101% | viability, T/C [12] 92% | viability, T/C [13] 92.4% | viability, T/C [14] 65.8% | viability, T/C [15] 74.8% | viability, T/C [16] 85.9% | viability, T/C [17] 95.3% | viability, T/C [18] 96.5% | viability, T/C [19] 92.8% | viability, T/C [20] 89.9% | viability, T/C [21] 87.9% | viability, T/C [22] 83.2% | viability, T/C [23] 90.2% | viability, T/C [24] 97.6% | viability, T/C [25] 80.7% | viability, T/C [26] 72.5% | viability, T/C [27] 74.3% | viability, T/C [28] 89% | viability, T/C [29] 100% | viability, T/C [30] 80% | viability, T/C [31] 82.3% | viability, T/C [32] 75.8% | viability, T/C [33] 87.3% | viability, T/C [34] 69.8% | viability, T/C [35] 79.3% | viability, T/C [36] 84.3%
< 5.00: pIC50 (second compound 0.0316 µM) | pIC50 (second compound 0.1 µM) | pIC50 (second compound 0.316 µM) | pIC50 (second compound 1 µM) | pIC50 (second compound 3.16 µM) | pIC50 (second compound 10 µM)

COc1ccc([C@@H](O)c2cc(-c3ncnc4cc(N5CCOCC5)ccc34)c(F)cc2Cl)nn1 + Cc1[nH]c2ccc(F)cc2c1-c1nc2c3cccnc3c3ncccc3c2[nH]1
5.07: pIC50 (second compound 10 µM)
inactive: viability, T/C [1] 90% | viability, T/C [2] 98.5% | viability, T/C [3] 93.9% | viability, T/C [4] 80.4% | viability, T/C [5] 80.5% | viability, T/C [6] 60% | viability, T/C [7] 110% | viability, T/C [8] 86.2% | viability, T/C [9] 92.3% | viability, T/C [10] 60.7% | viability, T/C [11] 106% | viability, T/C [12] 48.8% | viability, T/C [13] 86.8% | viability, T/C [14] 98.9% | viability, T/C [15] 100% | viability, T/C [16] 81% | viability, T/C [17] 98.9% | viability, T/C [18] 67.8% | viability, T/C [19] 74.3% | viability, T/C [20] 81.4% | viability, T/C [21] 95.4% | viability, T/C [22] 72% | viability, T/C [23] 86.6% | viability, T/C [24] 40.1% | viability, T/C [25] 72.4% | viability, T/C [26] 71.9% | viability, T/C [27] 51.2% | viability, T/C [28] 92.2% | viability, T/C [29] 95.9% | viability, T/C [30] 54.7% | viability, T/C [31] 66% | viability, T/C [32] 88.5% | viability, T/C [33] 73.1% | viability, T/C [34] 73.1% | viability, T/C [35] 80.4% | viability, T/C [36] 45.7%
< 5.00: pIC50 (second compound 0.0316 µM) | pIC50 (second compound 0.1 µM) | pIC50 (second compound 0.316 µM) | pIC50 (second compound 3.16 µM)
5.12: pIC50 (second compound 1 µM)

COc1cc(C2c3cc4c(cc3C(OC3OC5COC(C)OC5C(O)C3O)C3COC(=O)C23)OCO4)cc(OC)c1O (stereo unspecified) + CN(C)c1ccc(Nc2c3ccc(NC(=O)CCN4CCCC4)cc3nc3cc(NC(=O)CCN4CCCC4)ccc23)cc1
inactive: viability, T/C [1] 93.8% | viability, T/C [2] 105% | viability, T/C [3] 96.5% | viability, T/C [4] 78.6% | viability, T/C [5] 74.1% | viability, T/C [6] 74.7% | viability, T/C [7] 113% | viability, T/C [8] 105% | viability, T/C [9] 101% | viability, T/C [10] 81.2% | viability, T/C [11] 95.2% | viability, T/C [12] 65.7% | viability, T/C [13] 97.2% | viability, T/C [14] 96.6% | viability, T/C [15] 91.4% | viability, T/C [16] 87.1% | viability, T/C [17] 92.3% | viability, T/C [18] 64.8% | viability, T/C [19] 89.1% | viability, T/C [20] 110% | viability, T/C [21] 90.2% | viability, T/C [22] 75.1% | viability, T/C [23] 91.2% | viability, T/C [24] 55.2% | viability, T/C [25] 78.7% | viability, T/C [26] 102% | viability, T/C [27] 76.7% | viability, T/C [28] 95.2% | viability, T/C [29] 83.2% | viability, T/C [30] 72.3% | viability, T/C [31] 79.7% | viability, T/C [32] 108% | viability, T/C [33] 99.9% | viability, T/C [34] 87.2% | viability, T/C [35] 89.8% | viability, T/C [36] 67.4%
< 5.00: pIC50 (second compound 0.0316 µM) | pIC50 (second compound 0.1 µM) | pIC50 (second compound 0.316 µM) | pIC50 (second compound 1 µM) | pIC50 (second compound 3.16 µM) | pIC50 (second compound 10 µM)
